According to ChEMBL document CHEMBL5634156, “A potent and selective cis-amide inhibitor of ryanodine receptor 2 as a candidate for cardiac arrhythmia treatment” (Eur J Med Chem, 2023):
Active and inactive are the calls of the source. No cut-off for these calls is given here.

Tests used:
Type in all cases: cell-based
Ryanodine receptor 2 = Ryanodine receptor 2 (Mus musculus, UniProt E9Q401); assay: Inhibition of Full length wild type mouse RyR2 expressed in Flp-In-T-REx-293 cells assessed as increase in Ca2+ release endoplasmic reticulum by flex-station 3 fluorometer analysis
Chain of Ryanodine receptor 2 (E9Q401 whole entry): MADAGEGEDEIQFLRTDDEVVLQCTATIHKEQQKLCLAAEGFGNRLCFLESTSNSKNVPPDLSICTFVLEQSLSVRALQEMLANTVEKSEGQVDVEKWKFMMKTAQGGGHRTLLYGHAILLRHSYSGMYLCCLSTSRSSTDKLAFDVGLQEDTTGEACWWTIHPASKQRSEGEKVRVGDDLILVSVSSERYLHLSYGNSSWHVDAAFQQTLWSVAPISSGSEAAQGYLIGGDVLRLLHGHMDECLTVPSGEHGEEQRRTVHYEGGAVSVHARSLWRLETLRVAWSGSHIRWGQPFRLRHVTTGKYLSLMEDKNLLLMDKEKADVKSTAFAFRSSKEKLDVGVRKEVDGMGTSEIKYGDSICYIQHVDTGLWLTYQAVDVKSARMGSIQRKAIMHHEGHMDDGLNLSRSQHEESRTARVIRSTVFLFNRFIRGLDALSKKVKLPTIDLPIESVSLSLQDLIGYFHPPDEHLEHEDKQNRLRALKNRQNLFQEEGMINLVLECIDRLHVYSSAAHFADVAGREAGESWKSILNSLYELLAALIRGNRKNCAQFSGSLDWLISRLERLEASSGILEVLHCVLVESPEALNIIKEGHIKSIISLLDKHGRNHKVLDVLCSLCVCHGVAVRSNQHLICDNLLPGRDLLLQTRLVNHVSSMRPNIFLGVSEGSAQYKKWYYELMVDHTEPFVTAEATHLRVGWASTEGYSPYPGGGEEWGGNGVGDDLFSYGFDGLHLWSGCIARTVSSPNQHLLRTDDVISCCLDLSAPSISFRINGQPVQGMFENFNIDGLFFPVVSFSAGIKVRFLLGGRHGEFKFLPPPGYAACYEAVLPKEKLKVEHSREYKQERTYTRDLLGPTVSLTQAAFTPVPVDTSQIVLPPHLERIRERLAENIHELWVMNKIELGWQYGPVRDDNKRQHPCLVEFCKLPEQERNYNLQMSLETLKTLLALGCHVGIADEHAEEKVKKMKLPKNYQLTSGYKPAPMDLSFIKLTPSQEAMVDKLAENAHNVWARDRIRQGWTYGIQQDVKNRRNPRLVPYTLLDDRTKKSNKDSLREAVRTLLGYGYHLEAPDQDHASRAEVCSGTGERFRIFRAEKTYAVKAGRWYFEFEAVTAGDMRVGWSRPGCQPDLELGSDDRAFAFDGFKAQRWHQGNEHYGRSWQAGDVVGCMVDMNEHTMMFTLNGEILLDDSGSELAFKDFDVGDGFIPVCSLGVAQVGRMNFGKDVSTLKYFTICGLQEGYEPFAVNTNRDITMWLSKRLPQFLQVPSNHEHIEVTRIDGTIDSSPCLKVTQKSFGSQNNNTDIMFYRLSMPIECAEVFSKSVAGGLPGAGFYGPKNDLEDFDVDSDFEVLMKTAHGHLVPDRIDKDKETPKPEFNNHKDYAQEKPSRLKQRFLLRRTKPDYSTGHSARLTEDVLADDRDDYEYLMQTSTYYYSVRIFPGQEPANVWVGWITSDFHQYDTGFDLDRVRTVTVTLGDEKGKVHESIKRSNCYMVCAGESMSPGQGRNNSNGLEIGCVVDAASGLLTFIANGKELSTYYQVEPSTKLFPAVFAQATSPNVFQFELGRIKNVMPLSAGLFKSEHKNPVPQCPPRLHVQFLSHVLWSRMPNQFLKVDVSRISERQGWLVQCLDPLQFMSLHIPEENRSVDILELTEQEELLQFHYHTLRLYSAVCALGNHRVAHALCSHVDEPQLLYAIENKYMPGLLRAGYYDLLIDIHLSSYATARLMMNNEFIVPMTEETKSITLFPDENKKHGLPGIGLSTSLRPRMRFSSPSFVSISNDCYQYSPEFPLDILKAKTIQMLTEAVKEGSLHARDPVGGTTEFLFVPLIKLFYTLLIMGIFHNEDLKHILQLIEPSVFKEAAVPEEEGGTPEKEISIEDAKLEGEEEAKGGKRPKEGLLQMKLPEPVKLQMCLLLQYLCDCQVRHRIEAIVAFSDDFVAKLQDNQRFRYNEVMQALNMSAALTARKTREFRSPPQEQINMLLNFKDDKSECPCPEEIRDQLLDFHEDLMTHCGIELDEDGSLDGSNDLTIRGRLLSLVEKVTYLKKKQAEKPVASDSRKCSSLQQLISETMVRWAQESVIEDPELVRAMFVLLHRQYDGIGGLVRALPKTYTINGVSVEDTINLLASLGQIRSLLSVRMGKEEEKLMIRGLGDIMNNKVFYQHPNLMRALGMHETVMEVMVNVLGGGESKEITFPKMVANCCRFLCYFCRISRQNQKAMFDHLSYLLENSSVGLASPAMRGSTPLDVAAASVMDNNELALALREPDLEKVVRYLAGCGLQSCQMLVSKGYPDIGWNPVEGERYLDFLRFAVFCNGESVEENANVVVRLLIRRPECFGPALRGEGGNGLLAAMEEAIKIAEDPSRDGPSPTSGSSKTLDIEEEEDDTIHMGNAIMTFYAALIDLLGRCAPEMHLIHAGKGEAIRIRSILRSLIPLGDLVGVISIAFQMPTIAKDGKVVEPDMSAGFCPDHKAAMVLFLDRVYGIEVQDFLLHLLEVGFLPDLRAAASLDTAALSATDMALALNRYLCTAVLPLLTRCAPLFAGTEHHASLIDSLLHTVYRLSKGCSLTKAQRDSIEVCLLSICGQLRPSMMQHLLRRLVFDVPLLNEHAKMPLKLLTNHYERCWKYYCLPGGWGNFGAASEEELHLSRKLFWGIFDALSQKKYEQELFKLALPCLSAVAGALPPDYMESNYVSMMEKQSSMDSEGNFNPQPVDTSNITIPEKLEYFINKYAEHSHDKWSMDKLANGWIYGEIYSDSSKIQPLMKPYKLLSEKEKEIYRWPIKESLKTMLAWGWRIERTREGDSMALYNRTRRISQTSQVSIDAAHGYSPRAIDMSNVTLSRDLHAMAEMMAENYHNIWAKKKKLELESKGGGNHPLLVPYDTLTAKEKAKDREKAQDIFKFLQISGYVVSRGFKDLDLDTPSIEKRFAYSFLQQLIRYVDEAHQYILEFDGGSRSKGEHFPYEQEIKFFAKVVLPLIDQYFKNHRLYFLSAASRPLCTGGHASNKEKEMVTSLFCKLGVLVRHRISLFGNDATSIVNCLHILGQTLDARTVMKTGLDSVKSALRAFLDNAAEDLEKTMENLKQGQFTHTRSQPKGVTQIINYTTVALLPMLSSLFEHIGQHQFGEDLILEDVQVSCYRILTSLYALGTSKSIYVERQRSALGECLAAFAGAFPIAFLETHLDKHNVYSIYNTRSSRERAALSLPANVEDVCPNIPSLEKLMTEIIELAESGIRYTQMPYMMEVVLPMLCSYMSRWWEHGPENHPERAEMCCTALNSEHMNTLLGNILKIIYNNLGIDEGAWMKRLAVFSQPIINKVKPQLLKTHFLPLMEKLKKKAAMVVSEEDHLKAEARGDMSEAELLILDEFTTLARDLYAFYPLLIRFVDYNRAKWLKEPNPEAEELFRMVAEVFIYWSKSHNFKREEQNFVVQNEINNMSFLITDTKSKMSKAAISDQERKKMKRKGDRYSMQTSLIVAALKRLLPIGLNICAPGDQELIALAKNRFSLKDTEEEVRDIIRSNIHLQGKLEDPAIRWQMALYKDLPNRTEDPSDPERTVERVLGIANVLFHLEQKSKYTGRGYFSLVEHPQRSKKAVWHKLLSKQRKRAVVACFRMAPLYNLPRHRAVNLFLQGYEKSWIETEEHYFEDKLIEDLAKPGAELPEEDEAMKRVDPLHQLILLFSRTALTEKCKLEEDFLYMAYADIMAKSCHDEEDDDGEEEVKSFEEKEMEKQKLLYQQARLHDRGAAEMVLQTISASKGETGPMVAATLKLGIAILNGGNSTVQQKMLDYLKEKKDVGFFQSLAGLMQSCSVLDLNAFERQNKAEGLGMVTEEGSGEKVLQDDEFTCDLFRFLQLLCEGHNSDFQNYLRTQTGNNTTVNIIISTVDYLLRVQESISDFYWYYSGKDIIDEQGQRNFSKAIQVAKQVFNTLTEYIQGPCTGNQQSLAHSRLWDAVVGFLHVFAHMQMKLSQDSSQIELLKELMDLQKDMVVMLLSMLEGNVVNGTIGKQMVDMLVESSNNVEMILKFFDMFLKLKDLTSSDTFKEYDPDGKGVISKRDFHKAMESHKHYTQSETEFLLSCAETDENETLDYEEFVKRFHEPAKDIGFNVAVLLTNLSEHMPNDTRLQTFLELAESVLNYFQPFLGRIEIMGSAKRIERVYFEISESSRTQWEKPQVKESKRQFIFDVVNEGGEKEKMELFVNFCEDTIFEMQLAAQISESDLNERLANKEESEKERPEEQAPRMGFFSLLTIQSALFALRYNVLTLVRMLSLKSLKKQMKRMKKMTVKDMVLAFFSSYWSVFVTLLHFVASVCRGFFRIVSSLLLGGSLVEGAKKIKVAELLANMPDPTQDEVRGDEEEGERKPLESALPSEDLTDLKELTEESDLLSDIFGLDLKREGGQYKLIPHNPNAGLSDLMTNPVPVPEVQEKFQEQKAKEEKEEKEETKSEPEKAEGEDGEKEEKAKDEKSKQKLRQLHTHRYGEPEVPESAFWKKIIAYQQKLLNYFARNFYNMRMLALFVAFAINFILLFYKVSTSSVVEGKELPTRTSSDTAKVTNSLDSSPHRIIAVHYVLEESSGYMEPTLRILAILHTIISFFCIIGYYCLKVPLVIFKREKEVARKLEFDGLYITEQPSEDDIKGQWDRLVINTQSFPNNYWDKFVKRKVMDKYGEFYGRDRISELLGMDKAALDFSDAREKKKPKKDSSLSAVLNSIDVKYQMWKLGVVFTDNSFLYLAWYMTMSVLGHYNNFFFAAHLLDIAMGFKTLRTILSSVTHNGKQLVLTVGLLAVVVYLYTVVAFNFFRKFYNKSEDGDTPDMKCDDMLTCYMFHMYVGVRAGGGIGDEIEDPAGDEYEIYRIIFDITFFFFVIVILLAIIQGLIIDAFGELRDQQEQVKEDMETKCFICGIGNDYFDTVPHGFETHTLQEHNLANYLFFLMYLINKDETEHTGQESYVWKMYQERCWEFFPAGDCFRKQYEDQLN

[1] = molecular target: Ryanodine receptor 1 (Homo sapiens) (UniProt P21817); assay: Inhibition of RyR1 (unknown origin) expressed in HEK293 cells assessed as caffeine-induced increase in Ca2+ release at 100 uM by flex-station 3 fluorometer analysis
Cardiomyocyte [2] = assay: Inhibition of RyR2 R420W mutant in mouse Cardiomyocyte assessed as 0.5 Hz field-pulse stimulated suppression of abnormal Ca2+ waves incubated for 3 mins by ROI analysis
[3] = molecular target: Ryanodine receptor 2 (Mus musculus) (UniProt E9Q401); assay: Inhibition of Full length wild type mouse RyR2 expressed in Flp-In-T-REx-293 cells assessed as caffeine-induced increase in Ca2+ release in endoplasmic reticulum at 0.0001 to 100 uM by flex-station 3 fluorometer analysis; conditions: dose 0.0001-100 µM
Chain of Ryanodine receptor 2 (Mus musculus) (E9Q401 whole entry): as above

Cardiomyocyte [4] = assay: Inhibition of RyR2 R420W mutant in mouse Cardiomyocyte assessed as 0.5 Hz field-pulse stimulated suppression of abnormal Ca2+ waves at 30 to 100 nM incubated for 15 seconds by ROI analysis; conditions: dose 30-100 nM, time 15.0 sec
HEK293 [5] = assay: Inhibition of RyR3 R2163C mutant (unknown origin) expressed in HEK293 cells assessed as caffeine-induced increase in Ca2+ release at 100 uM; conditions: Homo sapiens
[6] = molecular target: Ryanodine receptor 2 (Mus musculus) (UniProt E9Q401); assay: Inhibition of Full length wild type mouse RyR2 expressed in Flp-In-T-REx-293 cells assessed as increase in Ca2+ release in endoplasmic reticulum at 30 uM by flex-station 3 fluorometer analysis
[7] = molecular target: Ryanodine receptor 2 (Mus musculus) (UniProt E9Q401); assay: Inhibition of Full length mouse RyR2 expressed in human Flp-In-T-REx-293 cells
HEK293 [8] = assay: Inhibition of RyR1 R2163C mutant (unknown origin) expressed in HEK293 cells; conditions: Homo sapiens

EC50 (Ryanodine receptor 2) | SMILES | further results
28 nM | COc1ccc(N(C)C(=O)Cn2nnc(-c3cccc(F)c3)n2)cc1 | –
48 nM | COc1cccc(-c2nnn(CC(=O)N(C)c3ccc(OC)c(F)c3)n2)c1 | –
26 nM | COc1ccc(N(C)C(=O)Cn2nnc(-c3cccc(OC)c3)n2)cc1 | –
1140 nM | COc1ccc(-c2nnn(CC(=O)N(C)c3ccc(F)cc3)n2)cc1OC | –
34 nM | CN(C(=O)Cn1nnc(-c2cccc(F)c2)n1)c1ccc(F)cc1 | –
13 nM | CN(C(=O)Cn1nnc(-c2cc(F)cc(F)c2)n1)c1ccc(F)cc1 | inhibition [1]: inactive; inhibition (Cardiomyocyte [2]): Active; inhibition [3]: Active; inhibition (Cardiomyocyte [4]): Active; inhibition (HEK293 [5]): inactive; inhibition [6]: inactive
59 nM | COc1cc(-c2nnn(CC(=O)N(C)c3ccc(F)cc3)n2)ccc1F | –
23 nM | COc1cccc(-c2nnn(CC(=O)N(C)c3ccc(F)cc3)n2)c1 | –
1230 nM | COc1ccc(-c2nnn(CC(=O)N(C)c3ccccc3)n2)cc1 | –
50 nM | CN(C(=O)Cn1nnc(-c2ccccc2)n1)c1ccc(F)cc1 | –
220 nM | CN(C(=O)Cn1nnc(-c2ccc(F)cc2)n1)c1ccccc1 | –
136 nM | COc1ccc(N(C)C(=O)Cn2nnc(-c3ccccc3)n2)cc1 | –

Second part, the compound before the results:

SMILES | EC50 (Ryanodine receptor 2) | further results
CCCN(C(=O)Cn1nnc(-c2ccccc2)n1)c1ccccc1 | 29400 nM | –
O=C(Cn1nnc(-c2cccc(F)c2)n1)Nc1ccccc1 | > 30000 nM | –
COc1cccc(-c2nnn(CC(=O)N(C)c3ccccc3)n2)c1 | 180 nM | –
COc1ccc(NC(=O)Cn2nnc(-c3ccccc3)n2)cc1 | > 30000 nM | –
O=C(Cn1nnc(-c2ccccc2)n1)Nc1ccccc1 | > 30000 nM | –
O=C(Cn1nnc(-c2cccc(F)c2)n1)Nc1ccc(F)cc1 | > 30000 nM | –
O=C(Cn1nnc(-c2cc(F)cc(F)c2)n1)Nc1ccc(F)cc1 | > 30000 nM | –
COc1ccccc1-c1nnn(CC(=O)N(C)c2ccccc2)n1 | 2920 nM | –
COc1ccc(-c2nnn(CC(=O)Nc3ccccc3)n2)cc1 | > 30000 nM | –
CN(C(=O)Cn1nnc(-c2cc(F)cc(F)c2)n1)c1ccccc1 | 22 nM | –
CN(C(=O)Cn1nnc(-c2ccccc2F)n1)c1ccccc1 | 460 nM | –
COc1ccccc1-c1nnn(CC(=O)Nc2ccccc2)n1 | > 30000 nM | –
COc1cccc(-c2nnn(CC(=O)Nc3ccc(F)cc3)n2)c1 | > 30000 nM | –
COc1cccc(-c2nnn(CC(=O)N(C)c3ccc(OC)c(OC)c3)n2)c1 | > 30000 nM | –
CCN(C(=O)Cn1nnc(-c2ccccc2)n1)c1ccccc1 | 4080 nM | inhibition [7]: Active; inhibition (HEK293 [8]): inactive
CN(C(=O)Cn1nnc(-c2ccccc2)n1)c1cccc(F)c1 | 234 nM | –
COc1cccc(N(C)C(=O)Cn2nnc(-c3ccccc3)n2)c1 | 25000 nM | –
Nc1nc2ccc(OC(F)(F)F)cc2s1 [RILUZOLE] | 9900 nM | –
CN(C(=O)Cn1nnc(-c2cccc(F)c2)n1)c1ccccc1 | 96 nM | –
COC(=O)c1c(C)cc(O)cc1O [METHYL ORSELLINATE] | 1100 nM | –
COc1cccc(-c2nnn(CC(=O)Nc3ccccc3)n2)c1 | > 30000 nM | –
CN(C(=O)Cn1nnc(-c2ccccc2)n1)c1ccccc1 | 696 nM | –
O=C(Cn1nnc(-c2cccc(F)c2)n1)N1CCc2ccccc21 | > 30000 nM | –
COc1ccccc1N(C)C(=O)Cn1nnc(-c2ccccc2)n1 | > 30000 nM | –
CN(C(=O)Cn1nnc(-c2ccccc2)n1)c1ccccc1F | 859 nM | –
COc1cccc(-c2nnn(CC(=O)N3CCc4ccccc43)n2)c1 | > 30000 nM | –
CC(C)NCC(O)c1ccc(O)c(O)c1 (stereo not drawn) | – | inhibition (Cardiomyocyte [2]): inactive; inhibition (Cardiomyocyte [4]): inactive
